Measured values reported in patent US8440830B2, “Tetrahydro-fused pyridines as histone deacetylase inhibitors” (4SC AG, priority 2007, dated 2013).
Read-outs that look alike come from different tables or passages of the source.

Tests used:
[1] = tested on: histone H3 hyperacetylation in HeLa cervical carcinoma cells; assay: Cellular histone H3 hyperacetylation assay; format: cell-based; conditions: Homo sapiens, 24 h treatment
Method in brief: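 HeLa cells treated with compound for 24 h, then fixed, permeabilized and immunostained for acetylated histone H3 (K1-20) with an Alexa Fluor 488 secondary. High-content imaging scored the percentage of cells with nuclear fluorescence; EC50 from concentration-effect curves by non-linear regression.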

[2] = tested on: fully transformed malignant cancer cell lines; assay: Anti-proliferative activity, selection of cell lines (Alamar Blue); format: cell-based; conditions: Homo sapiens, 72 h, mean over cell lines, read-out: Mean IC50 values as calculated for fully malignant cancer cell lines
Description: The anti-proliferative activity of the histone deacetylase inhibitory compounds as described herein, is evaluated using the following cell lines: HeLa and HeLa-KB (cervical carcinoma), H460 (non small cell lung cancer), A549 (non-small cell lung cancer), MCF7 (breast carcinoma), MCF10A (normal, non tumorigenic breast epithelial), MDA-MB468 (breast carcinoma), MDA-MB435 (breast carcinoma), MDA-MB231 (breast carcinoma), SKBR-3 (breast carcinoma), SKOV-3 (ovarial carcinoma), A-2780 (ovarial carcinoma), RKO (colon carcinoma), HCT-15 (colon carcinoma), HCT-116 (colon carcinoma), PC3 (prostate carcinoma), BPH1 (benign prostate hyperplasia), AsPC1 (pancreatic carcinoma), Ca127 (tongue carcinoma), A-431 (vulva carcinoma), Hec1A (endometrial carcinoma), Saos-2 (osteosarcoma), U87MG (glioblastoma), WM266-4 (melanoma), K562 (chronic myeloid leukemia), EOL1 (acute hypereosinophilic myeloid leukemia), CCRF-CEM and CCRF-CEM VCR1000 (acute lymphoblastic leukemia sensitive and resistant towards Vincristine). For quantification of cellular proliferation/living cells the Alamar Blue (Resazurin) cell viability assay is applied (O'Brien et al. Eur J Biochem 267, 5421-5426, 2000). In this assay Resazurin is reduced to the fluorescent resorufine by cellular dehydrogenase activity, correlating with viable, proliferating cells. The examples are dissolved as 20 mM solutions in dimethylsulfoxide (DMSO) and subsequently diluted in semi-logarithmic steps. Cell lines are seeded at respective density into 96 well flat bottom plates in a volume of 200 μl per well. 24 h after seeding 1 μl each of the compound dilutions are added into each well of the 96 well plate. Each compound dilution is tested as quadruplicates. Wells containing untreated control cells are filled with 200 μl DMEM medium containing 0.5% v:v DMSO. The cells are then incubated with the compounds for 72 h at 37° C. in a humidified atmosphere containing 5% carbon dioxide. To determine the viability of the cells, 20 μl of a Resazurin solution (Sigma; 90 mg/l) are added. After 4 h incubation at 37° C. the fluorescence is measured at an extinction of λ=544 nm and an emission of λ=590 nm. For the calculation of the cell viability the emission value from untreated cells is set as 100% viability and the emission rates of treated cells are set in relation to the values of untreated cells. Viabilities are expressed as % values. The corresponding IC50 values of the compounds for cytotoxic activity are determined from the concentration-effect curves by means of non-linear regression.
The anti-proliferative activity of compounds from examples 1, 2, 3, 12 and 150 is evaluated by using a broad selection of non-malignant cell lines and fully transformed malignant cancer cell lines.

[3] = read-out: EC50, induction of histone H3 hyperacetylation
[4] = read-out: −lg EC50, induction of histone H3 hyperacetylation

Compound	EC50 [1, 3] [µM]	EC50 [1, 4] [µM]	IC50 [2] [µM]
Nc1ccccc1NC(=O)c1nc2c(s1)CN(C(=O)Nc1ccc(-c3ccccc3)cc1)CC2 [Example 1, N^2-(2-aminophenyl)-N5-biphenyl-4-yl-6,7-dihydro[1,3]thiazolo[5,4-c]pyridine-2,5(4H)-dicarboxamide]	0.15 to 15	0.251 to 15.8	2.4 to 5.4
CN(C)c1ccc(NC(=O)N2CCc3nc(C(=O)Nc4ccccc4N)sc3C2)cc1 [Example 2, N^2-(2-aminophenyl)-N5-[4-(dimethylamino)phenyl]-6,7-dihydro[1,3]thiazolo[5,4-c]pyridine-2,5(4H)-dicarboxamide]	0.15 to 15	0.251 to 15.8	2.4 to 5.4
COc1ccc(NC(=O)N2CCc3nc(C(=O)Nc4ccccc4N)sc3C2)cc1 [Example 3, N^2-(2-aminophenyl)-N5-(4-methoxyphenyl)-6,7-dihydro[1,3]thiazolo[5,4-c]pyridine-2,5(4H)-dicarboxamide]	0.15 to 15	0.251 to 15.8	2.4 to 5.4
Nc1ccccc1NC(=O)c1nc2c(s1)CN(C(=O)Nc1cnc3ccccc3c1)CC2 [Example 12, N^2-(2-aminophenyl)-N5-quinolin-3-yl-6,7-dihydro[1,3]thiazolo[5,4-c]pyridine-2,5(4H)-dicarboxamide]	0.15 to 15	0.251 to 15.8	2.4 to 5.4
